Laboratory results from patent US6719969B1, “Treatment of liver disease and injury with CXC chemokines” (The Regents of The University of Michigan, priority 1999, dated 2004).
“And” between values parts separate entries of the source, which are not always exact repeats. Identical values can stand only once. Like-named read-outs stand apart in the source and are kept apart here.

Legend:
[1] = system: CD1 mice challenged with 400 mg/kg acetaminophen; experiment: Acetaminophen-induced hepatic injury, mice fasted 12 h, treatment immediately or 10 h after challenge; format: in vivo, mouse; conditions: for Significant reduction of serum AST levels / Reduction of serum AST levels: AST at 48 h; for Liver injury (histology): treatment 10 h after acetaminophen, liver at 48 h; for Reduction of serum AST levels: NAC 100 ug, proteins 2 ug i.v.
Procedure: Female CD1 mice (6-8 wk of age) were purchased from Charles River Laboratories (Portage, Mich.) and maintained under specific pathogen-free conditions with free access to water and food prior to each study. Fresh suspensions of acetaminophen (Sigma Chemical Company, St. Louis, Mo.) were made daily by dissolving the compound in phosphate buffered saline (PBS) warmed to 40° C. In all studies, mice were allowed free access to water alone prior to an i.p. injection of 400 mg/kg acetaminophen (Manatou et al., 1996; incorporated herein by reference).
Protocol 2: In the second set of studies, mice were fasted for 12 h and received one of NAC, murine MIP-2, the human proteins ENA-78, IL-8, HGF or IP-10 either immediately or 10 h after acetaminophen challenge. […] Mice were injected i.v. with 100 μg of NAC or 2 μg of recombinant protein (ENA-78, IL-8, HGF or IP-10) dissolved in 0.5 ml of normal saline. All mice were subsequently sacrificed 48 h after acetaminophen challenge and serum and liver samples were removed.
Acute hepatocellular injury results in elevated levels of aspartate aminotransferase (AST). Serum levels of AST were determined 48 h after mice were challenged with acetaminophen by Clinical Pathology at the University of Michigan Medical School (Ann Arbor, Mich.) using standardized techniques.
For histological assessment of hepatic injury, liver tissues were fixed in 4% paraformaldehyde for 24 h prior to routine histological processing. A pathologist assessed hematoxylin and eosin stained slides from acetaminophen-challenged mice in a blinded manner. Separate scoring systems were devised to indicate the area of liver necrosis and hemorrhage, and the extent of hepatic inflammation. Detailed histological grading of hepatic injury including area of liver necrosis and hemorrhage was determined at 48 h after acetaminophen challenge. Hepatic inflammation was graded as absent, slight, moderate, or prominent.
The histological appearances of the livers from normal mice and mice that were challenged with acetaminophen and received saline or 2 μg of murine MIP-2, human ENA-78, human IL-8, human IP-10, human HGF or 100 μg of NAC were also analyzed. Mice were fasted for 12 h prior to i.p. injection with 400 mg/kg of acetaminophen, and then allowed free access to food. In these studies, saline, chemokines or NAC were given by i.v. injection 10 h after acetaminophen challenge, and liver was removed from each mouse for histological examination at the 48 h time point after acetaminophen.

[2] = system: normal murine liver cells (ATCC CRL-1638; NmuLi); experiment: Cultured liver cell proliferation after acetaminophen, [3H]thymidine incorporation; format: cell-based, mouse; conditions: for Proliferation of liver cells exposed to acetaminophen for 24 h: 2.5 mg/ml acetaminophen; for Proliferation of liver cells exposed to PBS: NAC 1 mM, cytokines 1 ng/ml, no acetaminophen
Procedure: The effects of chemokines, NAC and HGF on hepatocyte proliferation after a 24 h acetaminophen challenge were examined using normal murine liver cells obtained from American Type Culture Collection (ATCC CRL-1638; NmuLi). Hepatocytes were plated at a density of 1.0×10^5 cells/well in 6-well tissue culture plates, and were deprived of fetal bovine serum supplementation for 36 h prior to an study. Fasted hepatocytes were subsequently exposed to 2.5 mg/ml of acetaminophen and were left untreated or treated with one of NAC, MIP-2, ENA-78, IL-8, IP-10 or HGF. NAC at 1 mM or individual cytokines at 1 ng/ml were added either immediately or 10 h after the addition of acetaminophen.
In additional in vitro studies, normal serum or anti-CXCR2 antibody was also included in cultures of treated or untreated hepatocytes exposed to PBS or acetaminophen. Ten μCi of [^3H]thymidine was added to each well for the final 4 h of culture, and 24 h after the addition of acetaminophen suspensions of hepatocytes were prepared via cell lysis with 0.5% (v/v) Triton-X100. [^3H]thymidine incorporation was assessed by liquid scintillation counting on a Beckman counter (Beckman Instruments, Fullerton, Calif.).

[3] = system: CD-1 mice challenged with 400 mg/kg acetaminophen
[4] = system: CD1 mice challenged with 400 mg/kg acetaminophen; experiment: Acetaminophen challenge in mice fasted 24 h, MIP-2 or NAC treatment; format: in vivo, mouse
Procedure: Protocol 3: In the next set of studies, mice were fasted for 24 h and received MIP-2 (2 μg) or NAC (100 μg) via an i.v. injection either immediately or 10 h after acetaminophen challenge, and liver and serum samples were removed from surviving mice 48 h after acetaminophen challenge. Liver and serum samples from the experimental groups and from mice challenged with an i.p. injection of PBS and treated i.v. with normal saline were processed as described below.
The histological appearances of the livers from mice that were challenged with acetaminophen and received 100 μg of NAC or 2 μg of murine MIP-2 by i.v. injection, either immediately after or 10 h later, were also analyzed.

primary rat hepatocytes [5] = system: primary rat hepatocytes
Procedure: (§1) Adult male pathogen-free Sprague Dawley rats (Charles River, Portage, Mich.) weighing 300-350 gms. were used for isolation of hepatocytes by collagenase perfusion (Berry and Friend, 1969; Alpini et al., 1994; each incorporated herein by reference). Perfusion was performed via the portal vein after anesthesia was induced with intramuscular ketamine (100 mg/kg) and maintained with inhalation of methoxyflurane. […] The portal vein was then exposed and cannulated with a 16 gauge angiocatheter.
(§2) The liver was perfused with Hank's solution (calcium and magnesium free with 10 mM Hepes and 10^5 U/L of penicillin/streptomycin, pH 7.4 [Biowhittaker, Walkersville, Md.]) at 37° C. at a rate of 10 ml/min to flush the liver of intravascular blood. The liver was next perfused with a collagenase solution (0.5 mg/ml collagenase B [Boehringer Mannheim, Indianapolis, Ind.] in Dulbecco's Modified Eagle's Media/F12 [DMEM/F12 {Biowhittaker, Walkersville, Md.}] with 10^5 U/L penicillin/streptomycin) at 37° C. at a rate of 10 ml/min until there was evidence of tissue fracture beneath the liver capsule.
(§3) The liver was then gently removed from the animal, placed into a sterile petri dish containing additional collagenase solution, the liver capsule removed, and the tissue gently agitated to disperse the cells. […] Hepatocyte viability was generally 85-95% as determined by trypan blue exclusion. […]

[6] = system: CD-1 mice challenged with 400 mg/kg acetaminophen; experiment: Delayed MIP-2 therapy in acetaminophen-challenged mice: histology, BrdU, nuclear Western blot; format: in vivo, mouse
murine CXCR2 = molecular target: T1, murine CXCR2 (Mus musculus, UniProt P35343); conditions: Lee et al., 1995; cited from earlier work
T1 sequence (P35343 1-359): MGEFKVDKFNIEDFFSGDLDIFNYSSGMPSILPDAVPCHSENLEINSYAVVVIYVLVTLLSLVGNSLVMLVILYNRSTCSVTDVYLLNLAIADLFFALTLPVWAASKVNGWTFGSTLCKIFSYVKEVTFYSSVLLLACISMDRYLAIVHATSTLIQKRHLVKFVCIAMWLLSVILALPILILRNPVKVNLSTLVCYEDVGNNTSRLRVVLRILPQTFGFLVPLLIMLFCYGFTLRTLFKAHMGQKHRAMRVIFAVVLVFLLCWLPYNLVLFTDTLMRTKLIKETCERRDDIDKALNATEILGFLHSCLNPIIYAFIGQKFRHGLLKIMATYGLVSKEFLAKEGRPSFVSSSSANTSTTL

primary rat hepatocytes [7] = experiment: Primary rat hepatocyte proliferation in vitro, 3H-thymidine incorporation; conditions: 0.001-100 ng/ml, 24 h of incubation, vs media alone
Procedure: as §1, §2, §3

neutrophils = conditions: ELR motif introduced into PF-4; cited from earlier work
[8] = treatment immediately after acetaminophen
[9] = treatment delayed 10 h after acetaminophen
[10] = 24 h fast, treatment delayed 10 h
[11] = CD1 mice fasted 24 h, 400 mg/kg acetaminophen, 400 mg/kg

IP-10: non-ELR CXC chemokine, γ-interferon-inducible protein-10
Significant reduction of serum AST levels [1, 8]: not
Lowering of proliferation rate of liver cells exposed to PBS ([2]; 1 ng/ml, vs control cultures with PBS): 40%
Proliferation of liver cells exposed to acetaminophen for 24 h ([2]; treatment added immediately): not further reduced
Hepatic injury (histology) ([3]; 1 ug i.v. 10 h after acetaminophen, 2 days after challenge): dramatically decreased hepatic injury
Decrease in liver injury (serum ALT) ([3]; 8 hours after administration, vs saline): approximately three-fold
Serum MIP-2 levels ([3]; 8 h post treatment): almost three times the levels seen in control animals
CXCR2 protein in liver (Western blot) ([3]; 26 h and subsequent time points): high level of CXCR2 protein
CXCR2 protein on hepatocytes (immunohistochemistry) ([3]; mouse, in vivo): quite strong expression of CXCR2 protein

ENA-78: ELR-containing CXC chemokine, epithelial neutrophil activating protein-78; human recombinant protein
Liver injury (histology) [1]: marked attenuation of liver injury
Significant reduction of serum AST levels [1, 9]: significantly reduced serum AST levels
Reduction of serum AST levels [1, 8]: approximately 50%
Proliferation of liver cells exposed to acetaminophen for 24 h ([2]; treatment added immediately): prevented the drop in liver cell proliferation
Proliferation of liver cells exposed to PBS [2]: did not change the proliferation

CC(=O)N[C@@H](CS)C(=O)O [NAC, N-acetyl-cysteine]
Liver injury (histology) [1]: Neither HGF nor 100 μg of NAC were effective
Significant reduction of serum AST levels [1, 9]: no longer able to significantly reduced serum AST levels
Reduction of serum AST levels [1, 8]: approximately 90%
Liver histology [4, 10]: did not attenuate hepatic injury
Liver histology ([4]; 24 h fast, treatment immediately after acetaminophen): effective
Serum AST, NAC vs MIP-2 ([4]; 24 h fast, treatment immediately after acetaminophen, 48 h): significantly lower levels of serum AST
Percent survival, treatment Immediately After Acetaminophen ([4]; CD1 mice fasted 24 h, 400 mg/kg acetaminophen, monitored 48 h, 400 mg/kg): 90%
Percent survival, treatment 10 h post Acetaminophen [4, 11]: 25% and 20%
Proliferation of liver cells exposed to acetaminophen for 24 h ([2]; treatment added 10 h later, vs PBS cultures): significantly reduced liver cell proliferation
Proliferation of liver cells exposed to acetaminophen for 24 h ([2]; treatment added immediately): maintained the proliferation
Proliferation of liver cells exposed to PBS [2]: did not alter the proliferation

IL-8: ELR-containing CXC chemokine, interleukin-8; human recombinant protein
Liver injury (histology) [1]: marked attenuation of liver injury
Significant reduction of serum AST levels [1, 9]: significantly reduced serum AST levels
Reduction of serum AST levels [1, 8]: approximately 50%
Proliferation of liver cells exposed to PBS [2]: did not change the proliferation

HGF: human hepatocyte growth factor, used as positive control [reference compound]
Liver injury (histology) [1]: Neither HGF nor 100 μg of NAC were effective
Significant reduction of serum AST levels [1, 8]: not
Proliferation of liver cells exposed to PBS [2]: did not change the proliferation
Hepatocyte proliferation (incorporation of 3H-thymidine) (primary rat hepatocytes [5]): more significant

B1: MIP-2: ELR-containing CXC chemokine, macrophage inflammatory protein-2; recombinant murine protein (protein, UniProt P10889 28-100, looked up)
C-X-C motif chemokine 2: AVVASELRCQCLKTLPRVDFKNIQSLSVTPPGPHCAQTEVIATLKGGQKVCLDPEAPLVQKIIQKILNKGKAN
Liver injury (histology) [1]: marked attenuation of liver injury
Significant reduction of serum AST levels [1, 9]: significantly reduced serum AST levels
Reduction of serum AST levels [1, 8]: approximately 50%
Liver histology [4, 10]: showed improvements
Serum AST, MIP-2 vs NAC ([4]; 24 h fast, treatment delayed 10 h, 48 h): significantly lower levels of serum AST
Percent survival, treatment 10 h post Acetaminophen [4, 11]: 60%
Proliferation of liver cells exposed to acetaminophen for 24 h ([2]; treatment added immediately): prevented the drop in liver cell proliferation
Proliferation of liver cells exposed to PBS [2]: did not change the proliferation
Liver histology 2 days after injection ([6]; 1 ug i.v. 10 h after acetaminophen): little evidence of liver injury
Nuclear expression of C/EBP-α ([6]; 8 h after treatment): exhibited nuclear expression of the 48- and 42-kDa isoforms of C/EBP-α
Nuclear cyclin D1 protein ([6]; 24 h after treatment, Western blot): markedly greater nuclear levels of cyclin D1 protein
BrdU-labeled hepatocytes, enhancement above control group ([6]; 48 h after treatment): 10 fold
AST and ALT levels ([6]; IL-6 knockout): dramatic decrease of AST and ALT levels
Nuclear expression of 38- and 35-kDa LAP of C/EBP-β ([6]; Western blot of liver nuclear extracts): evident at 4 h after MIP-2 treatment
Nuclear expression of STAT-3 ([6]; vs PBS): strongly expressed at all times examined
IL-6 in serum or liver ([6]; vs controls): never significantly elevated
Affinity for murine CXCR2 relative to KC (murine CXCR2): ten-fold greater affinity
Hepatocyte proliferation (incorporation of 3H-thymidine) (primary rat hepatocytes [7]): significant increase in hepatocyte proliferation

B2: PF-4: CXC chemokine lacking the ELR sequence (protein, UniProt P02776 32-101, looked up)
Platelet factor 4: EAEEDGDLQCLCVKTTSQVRPRHITSLEVIKAGPHCPTAQLIATLKNGRKICLDLQAPLYKKIIKKLLES
Increase in neutrophil chemotactic properties (neutrophils): 1,000 fold

B3: KC: murine ELR-CXC chemokine with neutrophil chemotactic properties (protein, UniProt P12850 25-96, looked up)
Growth-regulated alpha protein: APIANELRCQCLQTMAGIHLKNIQSLKVLPSGPHCTQTEVIATLKNGREACLDPEAPLVQKIVQKMLKGVPK
Affinity for CXCR2, fold less than MIP-2 (murine CXCR2): approximately 10 fold
